The compounds below were run on HT-29 cells (assay: HT29 cells 0FBS assay in vitro: TNF-α/SMAC mimetic/zVAD-FMK induced necroptosis, CellTiter-Glo cell viability (RIP1 inhibitory activity)). Conditions: Homo sapiens, FBS free medium, TNF-α (10 ng/ml) + SMAC mimetic (6 uM) + zVAD-FMK (10 μM), 20 hours, geometric mean EC50.
Format: cell-based
Source text: Protocol for HT29 Cells 0FBS Assay In Vitro
• Cell line: HT-29 (ATCC® HTB-38™) • Culture medium: McCOY's 5A, Gibco, Cat No. 16600-082 • FBS, Gibco, Cat No. 10099-141C • Trypsin: Gibco, Cat No. 25200-056 • DMSO: Sigma, Cat No. 67-68-5, 1L • Assay plate: Corning #3903 • Compound dilution plate: Corning #3357 • Inducers: TNFα, GenScript, Cat No. Z01001-50, • SmacM, Cat. No., HY-15989, MedChemExpress (MCE) • Z_VAD FMK, TargetMol, T6013 • Cell Titer-Glo® Luminescent Cell Viability Assay Kit: Promega, Cat No. G7573 • EnVision: PerkinElmer, 2105-0010
2. Cell Seeding of HT-29 Cells
1) HT-29 cells were checked every day to make sure they are healthy and growing as expected. They were split sub-culturing when were approximately 80% confluent.
2) First pre-warm the culture medium of McCOY's 5A medium (Gibco, Cat No. 16600-082) with 10% FBS (Gibco, Cat No. 10099-141C) in 37° C. water bath for at least 30 min.
3) Growing cells to desired level of confluency 80% in a T75 flask, aspirate the medium, and wash with warm PBS two times.
4) Add 2-3 ml fresh warm trypsin (Gibco, Cat No. 25200-056) solution. Transfer the flask to a 37° C. incubator.
5) After 5 minutes, tap the side of the flask, and examine the flask under a microscope for lifting. If necessary, return the cells to the incubator for an additional 5-10 minutes, with occasional tapping, until lifting is complete.
6) Quickly neutralize the trypsin reaction by adding 6-9 ml cell culture medium, then transfer the cells to sterile 15 ml conical tubes. Pellet the cells by centrifugation at 300×g for 7 minutes, then decant the supernatant.
7) Resuspend the cells in fresh cell culture medium. Do cell counting with hemocytometer.
8) Seed 100 μl of 5,000 cells into each well of the sterile 96-well cell culture plate (Corning 3903) and culture overnight at 37° C. with 5% CO2.
3. Compounds Titration and Treatment of HT-29 Cells
1) All batches of compounds (CPDs0 (e.g., compound 1-169) were dissolved in DMSO (Dimethyl sulfoxide) as 20 mM stock solution.
2) Take 3 ul 20 mM stock solution of CPDs to […] DMSO and mix well, continue the titration ratio of 1:3 (20 ul CPDs+40 ul DMSO), e.g., to give solutions of CPDS at 6.6 mM, 2.2 mM, etc., till the 10 points end.
3) Take out assay plates with HT-29 cells from incubator, remove all culture medium then wash 1 time with 1×PBS, and change fresh McCOY's 5A medium of FBS free with a cocktail of TNF-α (10 ng/ml), the SMAC mimetic (6 uM) and zVAD-FMK (10 μM) to stimulate the HT-29 cells to increase pRIPK1 levels and necroptosis.
4) Add 0.5 μL of the diluted compound to the corresponding 96-well assay plates.
5) Incubate the assay plates for 20 hours at 37° C. with 5% CO2.
4. Performing Cell Viability Detection of HT-29 Cells after Treated with Compounds
1) The CellTiter-Glo® Luminescent Cell Viability Assay was employed to detect the ATP levels of viable HT-29 cells.
2) Equilibrate the CellTiter-Glo® buffer and the lyophilized substrate to room temperature prior to use.
3) Resuspend the CellTiter-Glo® substrate with CellTiter-Glo® buffer, mix by gently vortexing to obtain a homogeneous solution.
4) Pipette 20 μl the enzyme/substrate mixture by multi-channel pipette into the 96-well assay plates from step 5) under the Compounds titration and treatment stage.
5) Place the plates on an orbital shaker and mix the contents for 3 minutes to induce cell lysis.
6) Then allow the plates to incubate at room temperature for 10 minutes to stabilize luminescent signal.
7) Read and record luminescence signal with EnVision.
8) The geometric mean EC50 of the compounds were calculated from 10 points response dose with duplicate. In Table 2, activity is provided as follows: +++=0.1 nM≤EC50<100 nM; ++=100 nM≤EC5 1000 nM; […].

Row | SMILES | EC50 [nM]
1 | Cc1nc([C@@H]2CC=NN2C(=O)N2CC(Oc3cc(-c4c(C)cnn4C)ncc3F)C2)cs1 [Compound 120, (S)-(3-((2-(1,4-dimethyl-1H-pyrazol-5-yl)-5-fluoropyridin-4-yl)oxy)azetidin-1-yl)(5-(2-methylthiazol-4-yl)-4,5-dihydro-1H-pyrazol-1-yl)methanone] | 0.1 to 100
2 | Cc1c(N)nn(C)c1-c1cc(OC2CN(C(=O)N3N=CC[C@H]3c3cncc(F)c3)C2)c(F)cn1 [Compound 61, (S)-(3-((2-(3-amino-1,4-dimethyl-1H-pyrazol-5-yl)-5-fluoropyridin-4-yl)oxy)azetidin-1-yl)(5-(5-fluoropyridin-3-yl)-4,5-dihydro-1H-pyrazol-1-yl)methanone] | 0.1 to 100
3 | COCCn1nc(C)c(-c2cc(OC3CN(C(=O)N4N=CC[C@H]4c4cc(F)cc(C#N)c4)C3)c(F)cn2)c1C [Compound 20, (S)-3-fluoro-5-(1-(3-((5-fluoro-2-(1-(2-methoxyethyl)-3,5-dimethyl-1H-pyrazol-4-yl)pyridin-4-yl)oxy)azetidine-1-carbonyl)-4,5-dihydro-1H-pyrazol-5-yl)benzonitrile] | 0.1 to 100
4 | Cc1csc(C2CC=NN2C(=O)N2CC(Oc3cc(-c4c(C)cnn4C)ncc3F)C2)n1 (stereo not shown) [Compound 97, (3-((2-(1,4-dimethyl-1H-pyrazol-5-yl)-5-fluoropyridin-4-yl)oxy)azetidin-1-yl)(5-(4-methylthiazol-2-yl)-4,5-dihydro-1H-pyrazol-1-yl)methanone] | 100 to 1000
5 | Cc1cnn(C)c1-c1cc(OC2CN(C(=O)N3N=CCC3c3nc(C)c(C)s3)C2)c(F)cn1 (stereo not shown) [Compound 144, (3-((2-(1,4-dimethyl-1H-pyrazol-5-yl)-5-fluoropyridin-4-yl)oxy)azetidin-1-yl)(5-(4,5-dimethylthiazol-2-yl)-4,5-dihydro-1H-pyrazol-1-yl)methanone] | 100 to 1000
6 | Cc1c(C#N)nn(C)c1-c1ccc(F)c(OC2CN(C(=O)N3N=CC[C@H]3c3cc(F)cc(C#N)c3)C2)n1 [Compound 56, (S)-5-(6-((1-(5-(3-cyano-5-fluorophenyl)-4,5-dihydro-1H-pyrazole-1-carbonyl)azetidin-3-yl)oxy)-5-fluoropyridin-2-yl)-1,4-dimethyl-1H-pyrazole-3-carbonitrile] | 0.1 to 100
7 | CCn1nccc1-c1cc(OC2CN(C(=O)N3N=CC[C@H]3c3cc(F)cc(C#N)c3)C2)c(F)cn1 [Compound 12, (S)-3-(1-(3-((2-(1-ethyl-1H-pyrazol-5-yl)-5-fluoropyridin-4-yl)oxy)azetidine-1-carbonyl)-4,5-dihydro-1H-pyrazol-5-yl)-5-fluorobenzonitrile] | 0.1 to 100
8 | Cn1ncc(Cl)c1-c1cc(OC2CN(C(=O)N3N=CC[C@H]3c3cncc(F)c3)C2)c(F)cn1 [Compound 43, (S)-(3-((2-(4-chloro-1-methyl-1H-pyrazol-5-yl)-5-fluoropyridin-4-yl)oxy)azetidin-1-yl)(5-(5-fluoropyridin-3-yl)-4,5-dihydro-1H-pyrazol-1-yl) methanone] | 0.1 to 100
9 | CCn1nc(C)c(-c2cc(OC3CN(C(=O)N4N=CC[C@H]4c4cc(F)cc(C#N)c4)C3)c(F)cn2)c1C [Compound 52, (S)-3-(1-(3-((2-(1-ethyl-3,5-dimethyl-1H-pyrazol-4-yl)-5-fluoropyridin-4-yl)oxy)azetidine-1-carbonyl)-4,5-dihydro-1H-pyrazol-5-yl)-5-fluorobenzonitrile] | 0.1 to 100
10 | CCS(=O)(=O)c1c(C)nn(-c2cc(OC3CN(C(=O)N4N=CC[C@H]4c4cc(F)cc(C#N)c4)C3)c(F)cn2)c1C [Compound 48, (S)-3-(1-(3-((2-(4-(ethylsulfonyl)-3,5-dimethyl-1H-pyrazol-1-yl)-5-fluoropyridin-4-yl)oxy)azetidine-1-carbonyl)-4,5-dihydro-1H-pyrazol-5-yl)-5-fluorobenzonitrile] | 0.1 to 100
11 | Cc1nn(-c2cc(OC3CN(C(=O)N4N=CC[C@H]4c4cccc(F)c4)C3)c(F)cn2)c(C)c1C(=O)O [Compound 82, (S)-1-(5-fluoro-4-((1-(5-(3-fluorophenyl)-4,5-dihydro-1H-pyrazole-1-carbonyl)azetidin-3-yl)oxy)pyridin-2-yl)-3,5-dimethyl-1H-pyrazole-4-carb oxylic acid] | 0.1 to 100
12 | Cn1ncc(C#N)c1-c1ccc(F)c(OC2CN(C(=O)N3N=CC[C@H]3c3cncc(F)c3)C2)n1 [Compound 34, (S)-5-(5-fluoro-6-((1-(5-(5-fluoropyridin-3-yl)-4,5-dihydro-1H-pyrazole-1-carbonyl)azetidin-3-yl)oxy)pyridin-2-yl)-1-methyl-1H-pyrazole-4-carbonitrile] | 0.1 to 100
13 | Cc1cc(F)cc([C@@H]2CC=NN2C(=O)N2CC(Oc3cc(-n4nc(C)c(C(N)=O)c4C)ncc3F)C2)c1 [Compound 135, (S)-1-(5-fluoro-4-((1-(5-(3-fluoro-5-methylphenyl)-4,5-dihydro-1H-pyrazole-1-carbonyl)azetidin-3-yl)oxy)pyridin-2-yl)-3,5-dimethyl-1H-pyrazole-4-carboxamide] | 0.1 to 100
14 | Cc1c(-c2cc(OC3CN(C(=O)N4N=CC[C@H]4c4cccc(F)c4)C3)c(F)cn2)nn(C)c1C(N)=O [Compound 111, (S)-3-(5-fluoro-4-((1-(5-(3-fluorophenyl)-4,5-dihydro-1H-pyrazole-1-carbonyl)azetidin-3-yl)oxy)pyridin-2-yl)-1,4-dimethyl-1H-pyrazole-5-carb oxamide] | 0.1 to 100
15 | Cc1cnn(C)c1-c1cc(OC2CN(C(=O)N3N=CC[C@H]3c3cc(F)cc(C#N)c3)C2)c(F)cn1 [Compound 11, (S)-3-(1-(3-((2-(1,4-dimethyl-1H-pyrazol-5-yl)-5-fluoropyridin-4-yl)oxy)azetidine-1-carbonyl)-4,5-dihydro-1H-pyrazol-5-yl)-5-fluorobenzonitrile] | 0.1 to 100
16 | Cc1nn(-c2cc(OC3CN(C(=O)N4N=CC[C@@H]4c4cc(F)cc(Cl)c4)C3)c(F)cn2)c(C)c1C(N)=O [Compound 134, (R)-1-(4-((1-(5-(3-chloro-5-fluorophenyl)-4,5-dihydro-1H-pyrazole-1-carbonyl)azetidin-3-yl)oxy)-5-fluoropyridin-2-yl)-3,5-dimethyl-1H-pyrazole-4-carboxamide] | 100 to 1000
17 | Cc1cnc(C2CC=NN2C(=O)N2CC(Oc3cc(-c4c(C)cnn4C)ncc3F)C2)s1 (stereo not shown) [Compound 94, (3-((2-(1,4-dimethyl-1H-pyrazol-5-yl)-5-fluoropyridin-4-yl)oxy)azetidin-1-yl)(5-(5-methylthiazol-2-yl)-4,5-dihydro-1H-pyrazol-1-yl)methanone] | 0.1 to 100
18 | Cn1ncc(F)c1-c1cc(OC2CN(C(=O)N3N=CC[C@H]3c3cc(F)cc(C#N)c3)C2)c(F)cn1 [Compound 5, (S)-3-fluoro-5-(1-(3-((5-fluoro-2-(4-fluoro-1-methyl-1H-pyrazol-5-yl)pyridin-4-yl)oxy)azetidine-1-carbonyl)-4,5-dihydro-1H-pyrazol-5-yl)benzonitrile] | 0.1 to 100
19 | Cc1nsc(C)c1-c1cc(OC2CN(C(=O)N3N=CC[C@H]3c3cc(F)cc(C#N)c3)C2)c(F)cn1 [Compound 31, (S)-3-(1-(3-((2-(3,5-dimethylisothiazol-4-yl)-5-fluoropyridin-4-yl)oxy)azetidine-1-carbonyl)-4,5-dihydro-1H-pyrazol-5-yl)-5-fluorobenzonitrile] | 0.1 to 100
